Patent US20190307740A1, “COMPOSITIONS AND METHODS FOR TREATMENT RELATED TO FALL AND FALL FREQUENCY IN NEURODEGENERATIVE DISEASES” (Neurocea, LLC, priority 2016, published 2019)

What was measured:
[1] = tested on: subjects with idiopathic PD with LIDs
Description: At the time the study was performed (2009), there was no FDA accepted instrument for measuring treatment efficacy for LIDs. Therefore, several secondary objectives were utilized to assess efficacy including the Unified Dyskinesia Rating Scale (UDysRS).

[2] = tested on: subjects with idiopathic PD with LIDs; remark: listed apart in the source
From the text: (§1) This post hoc analysis was inclusive of patients having baseline scores of […] for each of UPDRS Part II Question 13, Part II Question 14, and Part III Item 30.
(§2) The original UPDRS scale was used. […] In the UPDRS Part II, Question 13 is on Falling unrelated to Freezing. […] In Part II, Question 14 is on Freezing when Walking. This is a 5-point item and has two variables freezing and falls. […] Questions 13 and 14 were compared separately (Table 11).
(§3) For falls (UPDRS Part II, Question 13), a 5-point scale was used: 0: No falls to 4: falls more than once per day. For FOG and falls related to FOG (Question 14), a 5-point scale was used: 0: No FOG to 3 or 4: frequent falls from FOG. […] Analysis utilized Fisher's exact 2-tailed test. Improvement or worsening over baseline was calculated from the last treatment visit (Table 11).
Question 14—Freezing of Walking • 0=None; • 1=Rare freezing when walking, may have start hesitation; • 2=Occasional freezing when walking; • 3=Frequent freezing, occasionally falls from freezing; • 4=Frequent falls from freezing.
(§4) For the purposes of this alternative post hoc analysis, only patients having a screening or baseline score of 2 or more, i.e., occasional freezing when walking or occasional falls, less than once per day, were considered to have experienced episodes of freezing and/or falling. Additionally, scores of patients with a screening or baseline score of 1 were set to 0, i.e., no freezing when walking or no falls. All patients were included in the analysis regardless of their status during the study, with the last observation carried forward.

[3] = oral capsules
[4] = tested on: subjects with idiopathic PD with LIDs; remark: listed apart in the source
From the text: as §1, §2, §3
This post hoc analysis was inclusive of patients having screening and/or baseline scores of greater than 0 for each of UPDRS Part II Question 13, Part II Question 14, and Part III Item 30.
Question 13—Falling Unrelated to Freezing • 0=None; • 1=Rare falling; • 2=Occasionally falls, less than once per day; • 3=Falls an average of once daily; • 4=Falls more than once daily.
as §4

[5] = baseline to week 10, of 30 patients
[6] = baseline to week 10, of 30 patients, negative = improvement
[7] = of 30 patients, p=0.004 vs placebo

With `CN1CCCC1c1cccnc1.O=C(O)C(O)C(O)C(=O)O` (stereo not shown) [NP002, Nicotine Bitartrate] the “PGI-C responders (score of 1, 2, or 3)” value ([1]; Visit 4 (Week 10), p=0.0048 vs placebo) was 21 (77.8%), the “LF-ADL responders (>25% reduction from baseline), vs placebo” value ([1]; Visit 4 (Week 10), p=0.0453) was “statistically significant difference between treatment groups” and the “patient- and physician-rated assessments of efficacy vs placebo” value ([1]; in vivo) was “superior to placebo on ALL patient- and physician-rated assessments of efficacy”. The “improvement in freezing vs placebo at week 10” value ([2]; Question 14 score of 2 or greater at screening or baseline, Cochran-Mantel-Haenszel p=0.0476) was “statistically significant improvement in freezing”, the “patients with either a reduction or absence of FOG” value ([2]; active phase of the study) was about 73% and the “FOG (Question 14): patients with No Change” value [2, 5] was 17. For the same compound, the “FOG (Question 14): patients with change +1” value [2, 5] was 1, the “FOG (Question 14): patients with change +2” value [2, 5] was 0 and the “FOG (Question 14): patients with change +3” value [2, 5] was 0. For the same compound, the “FOG (Question 14): patients with change −1” value [2, 5] was 10, the “FOG (Question 14): patients with change −2” value [2, 5] was 2 and the “FOG (Question 14): patients with change −3” value [2, 6] was 0. For the same compound, the “patients with no FOG during the study” value ([2]; number of 30 patients) was 10, the “patients with a reduction in FOG” value [2, 7] was 40% and the “time until plasma concentration of nicotine returns close to baseline” value [3] was “approximately 6 hours”. The “falling vs placebo at week 10” value ([4]; Question 13 score of 2 or greater at screening or baseline, Wilcoxon-Mann-Whitney p=0.3250) was “directional signal towards reduced falling”, the “patients with either a reduction or absence of falls” value ([4]; active phase of the study) was about 87% and the “Falls (Question 13): patients with No Change” value [4, 5] was 15. For the same compound, the “Falls (Question 13): patients with change +1” value [4, 5] was 1, the “Falls (Question 13): patients with change +2” value [4, 5] was 0 and the “Falls (Question 13): patients with change +3” value [4, 5] was 0. The “Falls (Question 13): patients with change −1” value [4, 5] was 7, the “Falls (Question 13): patients with change −2” value [4, 5] was 5 and the “Falls (Question 13): patients with change −3” value [4, 6] was 2. The “patients with no falls during the study” value ([4]; number of 30 patients) was 12, the “patients with a reduction in falls” value [4, 7] was 47% and the “improvement in falling vs placebo at week 10” value ([4]; score >0 at screening/baseline, Fisher's exact test p=0.057) was “statistically significant improvement in falling”. For the same compound, the “patients who reported fewer falls (UPDRS Part II, Question 13)” value ([4]; screening and/or baseline score >0, follow-up to visit 3 or 4) was 14 of 15.
